Assay results from patent US20030114360A1 (priority 2000, published 2003).

Key:
[1] = test system: PrP-AP; assay type: binding
[2] = molecular target: PrP cell surface receptor on H4 cells (ATCC HTB-148)
[3] = molecular target: PrP cell surface receptor on COS-7 cells (ATCC CRL-1651)

## OC[C@@H](O)[C@@H](O)[C@H](O)[C@H](O)CO [mannitol]
[1]
  inhibition of PrP-AP binding to cell surfaces: does not participate in the inhibition of binding

## Copaxone
[2]
  IC50: 500 nM
[3]
  IC50: 500 nM

## GGSRYPGQGSP [control 11 mer]
[1]
  inhibition of PrP-AP binding to cell surfaces by peptide: Only the peptide with the PrP amino terminal sequence inhibited

## KKRPKPGGWNT [N-term 11 mer]
[1]
  inhibition of PrP-AP binding to cell surfaces by peptide: inhibited
